Values joined by “and” are separate entries in the source; they are usually repeats but may differ in a detail not shown here. Equal entries are not always repeated. Where two headings read alike, the source gives them in different places.
Tests used:
[1] = biological target: T1, norepinephrine transporter (Homo sapiens, UniProt P23975); experiment: Competitive binding in transfected cell lines, [3H]Nisoxetine
T1 construct: expressed in transfected cells

[2] = biological target: T2, human SERT (Homo sapiens, UniProt P31645); experiment: Competitive binding in transfected cell lines, [3H]Citalopram
T2 construct: expressed in transfected cells
T2 sequence (P31645 whole entry): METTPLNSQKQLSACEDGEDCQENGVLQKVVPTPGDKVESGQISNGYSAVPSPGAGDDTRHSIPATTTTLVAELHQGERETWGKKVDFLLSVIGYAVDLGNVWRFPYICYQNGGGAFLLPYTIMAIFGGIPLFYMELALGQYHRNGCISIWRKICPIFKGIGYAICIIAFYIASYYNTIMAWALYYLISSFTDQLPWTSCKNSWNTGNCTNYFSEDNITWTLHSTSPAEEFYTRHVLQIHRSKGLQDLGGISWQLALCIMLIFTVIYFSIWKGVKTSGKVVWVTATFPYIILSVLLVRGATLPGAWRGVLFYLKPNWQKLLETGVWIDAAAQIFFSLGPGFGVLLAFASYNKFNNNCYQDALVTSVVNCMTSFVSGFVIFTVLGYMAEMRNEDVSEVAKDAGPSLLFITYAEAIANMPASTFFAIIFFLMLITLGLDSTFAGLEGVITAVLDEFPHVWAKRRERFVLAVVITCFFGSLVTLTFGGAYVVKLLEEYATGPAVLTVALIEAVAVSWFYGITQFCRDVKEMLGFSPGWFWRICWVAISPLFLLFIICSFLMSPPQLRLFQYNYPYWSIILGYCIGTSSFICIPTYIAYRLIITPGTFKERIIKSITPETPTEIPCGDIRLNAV

[3] = biological target: T3, human DAT (Homo sapiens, UniProt Q01959); experiment: Competitive binding in transfected cell lines, [3H]WIN 35428
T3 construct: expressed in transfected cells
T3 sequence (Q01959 whole entry): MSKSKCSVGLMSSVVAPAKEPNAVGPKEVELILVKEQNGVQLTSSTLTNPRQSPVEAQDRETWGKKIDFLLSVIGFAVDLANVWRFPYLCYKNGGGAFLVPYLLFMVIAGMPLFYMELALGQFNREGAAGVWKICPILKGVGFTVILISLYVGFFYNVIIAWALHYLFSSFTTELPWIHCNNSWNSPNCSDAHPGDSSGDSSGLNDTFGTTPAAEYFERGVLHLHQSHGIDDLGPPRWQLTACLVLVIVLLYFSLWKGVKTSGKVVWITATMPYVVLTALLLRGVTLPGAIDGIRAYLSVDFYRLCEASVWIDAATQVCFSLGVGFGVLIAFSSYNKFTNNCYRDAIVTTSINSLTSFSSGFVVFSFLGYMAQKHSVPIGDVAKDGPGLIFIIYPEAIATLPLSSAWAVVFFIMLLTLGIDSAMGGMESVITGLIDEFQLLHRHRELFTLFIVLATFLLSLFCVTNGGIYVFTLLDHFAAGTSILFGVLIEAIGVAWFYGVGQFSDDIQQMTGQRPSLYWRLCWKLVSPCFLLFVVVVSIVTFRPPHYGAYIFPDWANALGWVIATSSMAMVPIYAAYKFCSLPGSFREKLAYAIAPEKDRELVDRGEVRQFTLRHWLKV

[4] = test system: striatal DAT; experiment: PET imaging in awake rhesus monkeys; type: in vivo, rhesus monkey
Description: The regional kinetics of [^18F] […] Both [^18F] […] [^18F] […] The peak uptake ratio of striatumwcerebellum was 4:1 at 20 minutes for [^18F] […] 6d. The in vivo ratio of [1^18F] […] FECNT, 5:1. [^18F]

[5] = biological target: T4, rat brain DAT (Rattus norvegicus, UniProt P23977); experiment: In vivo specificity: RTI-113 block before the 18F ligand in rats; conditions: for effect of RTI-113 on uptake in the striatum: RTI-113 5 mg/kg i.v. 15 minutes prior, 60 minutes
T4 construct: from tissue; host or cells: brain of living male Sprague Dawley rats (striatum, cortex, cerebellum dissected)
T4 sequence (P23977 whole entry): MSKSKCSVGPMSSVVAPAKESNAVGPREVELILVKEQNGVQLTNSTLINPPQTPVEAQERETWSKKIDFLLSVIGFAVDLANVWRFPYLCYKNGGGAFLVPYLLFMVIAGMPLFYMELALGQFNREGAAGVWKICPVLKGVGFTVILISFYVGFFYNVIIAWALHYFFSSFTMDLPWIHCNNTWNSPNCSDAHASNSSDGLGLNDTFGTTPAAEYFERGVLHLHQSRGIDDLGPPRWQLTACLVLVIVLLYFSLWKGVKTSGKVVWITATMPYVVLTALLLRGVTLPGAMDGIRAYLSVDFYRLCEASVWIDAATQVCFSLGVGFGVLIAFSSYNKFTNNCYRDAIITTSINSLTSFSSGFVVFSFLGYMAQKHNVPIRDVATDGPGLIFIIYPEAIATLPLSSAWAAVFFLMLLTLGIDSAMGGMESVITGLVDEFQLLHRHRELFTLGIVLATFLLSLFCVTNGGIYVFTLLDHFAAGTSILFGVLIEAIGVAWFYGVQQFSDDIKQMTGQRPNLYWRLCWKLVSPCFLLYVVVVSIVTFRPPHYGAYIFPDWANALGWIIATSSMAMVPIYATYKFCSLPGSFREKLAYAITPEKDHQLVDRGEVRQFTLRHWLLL
Description: To determine the in vivo specificity of FBNT analogs [^18F] […] 6a, 6d and 6e. The rats were sacrificed 60 minutes after injection of [^18F] […] 6a, 6d and 6e, in the DAT transporter rich striatum.

[6] = In vivo regional brain tissue distribution of 18F-labeled ligands in rats; parameters: species or system Sprague Dawley rats; conditions: rat; for Regional uptake of radioactivity, Cerebellum / Regional uptake of radioactivity, Cortex (Cx) / Regional uptake of radioactivity, Striatum / S/Cereb (striatum to cerebellum ratio) / S/Cx (striatum to cortex ratio) / Uptake of radioactivity, Blood / Uptake of radioactivity, Brain: i.v., 18F-labeled
From the text: The in vivo regional brain tissue distribution of [^18F]

[7] = [3H]Nisoxetine, transfected cell lines, read-out: NET, Ki
[8] = [3H]WIN 35428 as reference, cells transfected with human DAT, read-out: DAT, Ki
[9] = [3H]Citalopram, cells transfected with human SERT, read-out: 5-HTT, Ki
[10] = at 60 minutes compared to 5 minutes post injection
[11] = at 120 minutes compared to 5 minutes post injection
[12] = 60 min, 5 mg/kg RTI-113 i.v. 15 minutes prior

T1 sequence (P23975 whole entry): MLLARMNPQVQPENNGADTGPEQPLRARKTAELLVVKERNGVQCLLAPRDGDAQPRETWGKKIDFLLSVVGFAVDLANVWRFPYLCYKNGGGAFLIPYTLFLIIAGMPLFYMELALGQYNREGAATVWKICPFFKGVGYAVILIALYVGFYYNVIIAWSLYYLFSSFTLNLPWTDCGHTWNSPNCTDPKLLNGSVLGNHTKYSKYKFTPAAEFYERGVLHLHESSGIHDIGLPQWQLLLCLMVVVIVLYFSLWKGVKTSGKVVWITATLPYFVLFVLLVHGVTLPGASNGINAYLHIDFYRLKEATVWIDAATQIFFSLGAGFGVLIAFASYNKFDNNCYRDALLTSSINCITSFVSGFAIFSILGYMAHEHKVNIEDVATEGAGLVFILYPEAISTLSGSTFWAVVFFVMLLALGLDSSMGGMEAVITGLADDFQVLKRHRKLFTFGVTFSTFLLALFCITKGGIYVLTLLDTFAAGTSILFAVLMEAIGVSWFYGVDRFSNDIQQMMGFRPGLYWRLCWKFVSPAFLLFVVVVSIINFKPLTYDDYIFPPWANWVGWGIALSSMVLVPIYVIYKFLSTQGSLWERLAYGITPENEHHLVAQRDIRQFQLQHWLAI

Work on `COC(=O)[C@H]1[C@@H](c2ccc(Br)cc2)C[C@@H]2CC[C@H]1N2C/C=C/CF` [6b, N-((E)-4-=fluorobut-2-en-1-yl)-2β-carbomethoxy-3β-4-(4-bromophenyl)nortropane] yielded a Ki [1] of 91 nM and a Ki [2] of 0.85 nM.
With `COC(=O)[C@H]1[C@@H](c2ccc(F)cc2)C[C@@H]2CC[C@H]1N2C/C=C/I` [Altropane, reference compound] the Ki [1, 7] was > 10000 nM, the Ki [3, 8] was 0.78 nM and the Ki [2, 9] was 55.4 nM.
In the case of `COC(=O)[C@H]1[C@@H](c2ccc(Cl)cc2)C[C@@H]2CC[C@H]1N2C/C=C\CF` [6f, N-((Z)-4-fluorobut-2-en-1-yl)-2β-carbomethoxy-3β-(4-chlorophenyl) nortropane], the “initial uptake in striatum and cerebellum” value ([4]; awake rhesus monkeys) is reported as “high initial uptake in the striatum and very little uptake in the cerebellum”.
In the case of `COC(=O)[C@H]1[C@@H](c2ccc(F)cc2)C[C@@H]2CC[C@H]1N2C/C=C/CF` [6e, N-((E)-4-fluorobut-2-en-1-yl)-2β-carbomethoxy-3β-(4-fluorophenyl)nortropane], the Ki [3, 8] is reported as 1.7 nM, the “effect of RTI-113 on uptake in the striatum” value [5] is reported as “significantly blocked” and the “clearance from striatal tissue” value [6, 10] is reported as 70%. The “clearance from striatal tissue” value [6, 11] was 85%, the “time at which transient equilibrium in the striatum was reached” value ([4]; awake rhesus monkey, post injection) was 30 min and 20 min and the “early transient equilibrium at the striatal DAT” value ([4]; awake rhesus monkeys, PET) was “achieved an early transient equilibrium”.
For “N-((E)-4-fluorobut-2-en-1-yl)-2β-carbomethoxy-3β-phenylnortropane [6a]”, the Ki [1, 7] was > 10000 nM, the “selectivity for DAT over SERT” value ([3]; from binding in transfected cells) was 14 times and the “selectivity for DAT” value ([3]; in vitro competitive binding) was “very high selectivity”. The “Regional uptake of radioactivity, Cerebellum” value (“Regional uptake … Cerebellum” for short) [5, 12] was 0.09 % dose/g, the “Regional uptake of radioactivity, Cortex (Cx)” value (shortened to “Regional uptake … (Cx)”) [5, 12] was 0.10 % dose/g and the “Regional uptake of radioactivity, Striatum” value (from here on “Regional uptake … Striatum”) [5, 12] was 0.11 % dose/g. For the same compound, the “S/Cereb (striatum to cerebellum ratio)” value [5, 12] was 1.22, the “S/Cx (striatum to cortex ratio)” value [5, 12] was 1.10 and the “Uptake of radioactivity, Blood” value [5, 12] was 0.12 % dose/g. For the same compound, the “Uptake of radioactivity, Brain” value [5, 12] was 0.07 % dose/g, the “effect of RTI-113 on uptake in the striatum” value [5] was “significantly blocked” and the “clearance from striatal tissue” value [6, 10] was 75%. The “clearance from striatal tissue” value [6, 11] was 90%, the “Regional uptake … Cerebellum” value ([6]; 5 min) was 0.55 % dose/g and the “Regional uptake … (Cx)” value ([6]; 5 min) was 0.84 % dose/g. The “Regional uptake … Striatum” value ([6]; 5 min) was 1.25 % dose/g, the “S/Cereb (striatum to cerebellum ratio)” value ([6]; 5 min) was 2.27 and the “S/Cx (striatum to cortex ratio)” value ([6]; 5 min) was 1.49. For the same compound, the “Uptake of radioactivity, Blood” value ([6]; 5 min) was 0.22 % dose/g, the “Uptake of radioactivity, Brain” value ([6]; 5 min) was 0.58 % dose/g and the “Regional uptake … Cerebellum” value ([6]; 30 min) was 0.12 % dose/g. For the same compound, the “Regional uptake … (Cx)” value ([6]; 30 min) was 0.19 % dose/g, the “Regional uptake … Striatum” value ([6]; 30 min) was 0.36 % dose/g and the “S/Cereb (striatum to cerebellum ratio)” value ([6]; 30 min) was 3.0. For the same compound, the “S/Cx (striatum to cortex ratio)” value ([6]; 30 min) was 1.89, the “Uptake of radioactivity, Blood” value ([6]; 30 min) was 0.15 % dose/g and the “Uptake of radioactivity, Brain” value ([6]; 30 min) was 0.13 % dose/g. The “Regional uptake … Cerebellum” value ([6]; 60 min) was 0.09 % dose/g, the “Regional uptake … (Cx)” value ([6]; 60 min) was 0.13 % dose/g and the “Regional uptake … Striatum” value ([6]; 60 min) was 0.25 % dose/g. The “S/Cereb (striatum to cerebellum ratio)” value ([6]; 60 min) was 2.78, the “S/Cx (striatum to cortex ratio)” value ([6]; 60 min) was 1.92 and the “Uptake of radioactivity, Blood” value ([6]; 60 min) was 0.11 % dose/g. For the same compound, the “Uptake of radioactivity, Brain” value ([6]; 60 min) was 0.09 % dose/g, the “Regional uptake … Cerebellum” value ([6]; 120 min) was 0.07 % dose/g and the “Regional uptake … (Cx)” value ([6]; 120 min) was 0.09 % dose/g. The “Regional uptake … Striatum” value ([6]; 120 min) was 0.13 % dose/g, the “S/Cereb (striatum to cerebellum ratio)” value ([6]; 120 min) was 1.86 and the “S/Cx (striatum to cortex ratio)” value ([6]; 120 min) was 1.86. For the same compound, the “Uptake of radioactivity, Blood” value ([6]; 120 min) was 0.07 % dose/g, the “Uptake of radioactivity, Brain” value ([6]; 120 min) was 0.07 % dose/g and the “retention of radioactivity in the striatum” value ([4]; awake rhesus monkey, PET images) was “no visible retention of radioactivity in the striatum”. For the same compound, the Ki [2, 9] was 102 nM.
`COC(=O)[C@H]1[C@@H](c2ccc(I)cc2)C[C@@H]2CC[C@H]1N2C/C=C/CF` [6c, N-((E)-4-fluorobut-2-en-1-yl)-2β-carbomethoxy-3β-(4-iodophenyl)nortropane] gave a Ki [3] of 0.17 nM and a Ki [2] of 0.21 nM.
Work on `COC(=O)[C@H]1[C@@H](c2ccc(Cl)cc2)C[C@@H]2CC[C@H]1N2C/C=C/I` [MMG/142, IPT, reference compound] yielded a Ki [1] of 48.7 nM, a Ki [3] of 1.16 nM and a Ki [2] of 4.9 nM.

Reference: patent US6344179B1, “Fluoralkenyl nortropanes” (Emory University, priority 1999, dated 2002)
